Assay results published in ChEMBL document CHEMBL1201862, “PubChem BioAssay data set” (2004).
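Step 1: Grow cells in 96-well plates. Step 2: Expose to compound for 48 hours at 5 concentrations. Step 3: Interpolate endpoints linearly; if unreached, use highest concentration. Abbreviation: GI50, concentration required for 50% inhibition of growth.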 Calls of active or inactive are those of the source. No stated cut-off is given here; in the data, active = GI50 up to about 1.1 µM and inactive = higher.

Columns and labels:
Assay in all cases: NCI tumour cell line growth inhibition, 48 h
UACC-257 = tested on: UACC-257
MDA-MB-435 = tested on: MDA-MB-435
SF-539 = tested on: SF-539
NCI-H460 = tested on: NCI-H460
HOP-62 = tested on: HOP-62
BT-549 = tested on: BT-549
CAKI-1 = tested on: CAKI-1
NCI-H23 = tested on: NCI-H23
HL-60 = tested on: HL-60
EKVX = tested on: EKVX
HT-29 = tested on: HT-29
RXF 393 = tested on: RXF 393
HCT-116 = tested on: HCT-116
SN12C = tested on: SN12C
HCT-15 = tested on: HCT-15
T47D = tested on: T47D
SF-295 = tested on: SF-295
SK-MEL-2 = tested on: SK-MEL-2
LOX IMVI = tested on: LOX IMVI
M14 = tested on: M14
SF-268 = tested on: SF-268
U-251 = tested on: U-251
DU-145 = tested on: DU-145
A549 = tested on: A549
SK-OV-3 = tested on: SK-OV-3
SR = tested on: SR
COLO 205 = tested on: COLO 205
SNB-19 = tested on: SNB-19
NCI/ADR-RES = tested on: NCI/ADR-RES
IGROV-1 = tested on: IGROV-1
K562 = tested on: K562
Malme-3M = tested on: Malme-3M
NCI-H226 = tested on: NCI-H226
MCF7 = tested on: MCF7
HCC 2998 = tested on: HCC 2998
Hs-578T = tested on: Hs-578T
MOLT-4 = tested on: MOLT-4
SK-MEL-5 = tested on: SK-MEL-5
UACC-62 = tested on: UACC-62
OVCAR-3 = tested on: OVCAR-3
OVCAR-8 = tested on: OVCAR-8
SK-MEL-28 = tested on: SK-MEL-28
PC-3 = tested on: PC-3
OVCAR-5 = tested on: OVCAR-5
SNB-75 = tested on: SNB-75
MDA-MB-231 = tested on: MDA-MB-231
TK-10 = tested on: TK-10
SW-620 = tested on: SW-620
A498 = tested on: A498
CCRF-CEM = tested on: CCRF-CEM
HOP-92 = tested on: HOP-92
UO-31 = tested on: UO-31
KM12 = tested on: KM12
NCI-H522 = tested on: NCI-H522
ACHN = tested on: ACHN
786-0 = tested on: 786-0
MDA-N = tested on: MDA-N
OVCAR-4 = tested on: OVCAR-4
RPMI-8226 = tested on: RPMI-8226

O=C1CC2(CCC(O)(c3ccc4ccccc4c3)C(C(=O)c3ccc4ccccc4c3)C2)C(=O)c2ccccc2N1 (stereo not given)
GI50 (UACC-257): > 100 µM (inactive)
GI50 (MDA-MB-435): > 100 µM (inactive)
GI50 (SF-539): > 100 µM (inactive)
GI50 (NCI-H460): 29 µM (inactive)
GI50 (HOP-62): > 100 µM (inactive)
GI50 (BT-549): > 100 µM (inactive)
GI50 (CAKI-1): > 100 µM (inactive)
GI50 (NCI-H23): > 100 µM (inactive)
GI50 (HL-60): > 100 µM (inactive)
GI50 (EKVX): > 100 µM (inactive)
GI50 (HT-29): > 100 µM (inactive)
GI50 (RXF 393): > 100 µM (inactive)
GI50 (HCT-116): > 100 µM (inactive)
GI50 (SN12C): > 100 µM (inactive)
GI50 (HCT-15): > 10 µM
GI50 (T47D): 2.13 µM (inactive)
GI50 (SF-295): > 100 µM (inactive)
GI50 (SK-MEL-2): > 100 µM (inactive)
GI50 (LOX IMVI): > 100 µM (inactive)
GI50 (M14): 53.1 µM (inactive)
GI50 (SF-268): > 100 µM (inactive)
GI50 (U-251): > 100 µM (inactive)
GI50 (DU-145): > 100 µM (inactive)
GI50 (A549): > 100 µM (inactive)
GI50 (SK-OV-3): > 100 µM (inactive)
GI50 (SR): > 100 µM (inactive)
GI50 (COLO 205): > 100 µM (inactive)
GI50 (SNB-19): > 100 µM (inactive)
GI50 (NCI/ADR-RES): > 100 µM (inactive)
GI50 (IGROV-1): > 100 µM (inactive)
GI50 (K562): > 100 µM (inactive)
GI50 (Malme-3M): > 100 µM (inactive)
GI50 (NCI-H226): > 100 µM (inactive)
GI50 (MCF7): 7.59 µM (inactive)
GI50 (HCC 2998): > 100 µM (inactive)
GI50 (Hs-578T): > 100 µM (inactive)
GI50 (MOLT-4): 8.93 µM (inactive)
GI50 (SK-MEL-5): 23 µM (inactive)
GI50 (UACC-62): > 100 µM (inactive)
GI50 (OVCAR-3): > 100 µM (inactive)
GI50 (OVCAR-8): > 100 µM (inactive)
GI50 (SK-MEL-28): > 100 µM (inactive)
GI50 (PC-3): 4.27 µM (inactive)
GI50 (OVCAR-5): > 100 µM (inactive)
GI50 (SNB-75): > 100 µM (inactive)
GI50 (MDA-MB-231): > 100 µM (inactive)
GI50 (TK-10): > 100 µM (inactive)
GI50 (SW-620): > 100 µM (inactive)
GI50 (A498): > 100 µM (inactive)
GI50 (CCRF-CEM): > 100 µM (inactive)
GI50 (HOP-92): 5.69 µM (inactive)
GI50 (UO-31): > 100 µM (inactive)

N#Cc1c(-c2ccccc2)c(CN2CCCCC2)c(=O)n2c1[nH]c1ccccc12
GI50 (UACC-257): 42 µM (inactive)
GI50 (MDA-MB-435): 41.4 µM (inactive)
GI50 (SF-539): 38.1 µM (inactive)
GI50 (NCI-H460): 25.9 µM (inactive)
GI50 (HOP-62): 20.7 µM (inactive)
GI50 (BT-549): 35 µM (inactive)
GI50 (CAKI-1): 26.3 µM (inactive)
GI50 (NCI-H23): 37.9 µM (inactive)
GI50 (RXF 393): 32.5 µM (inactive)
GI50 (HCT-116): 16.6 µM (inactive)
GI50 (SN12C): 25.1 µM (inactive)
GI50 (KM12): 30.1 µM (inactive)
GI50 (NCI-H522): 24.3 µM (inactive)
GI50 (HCT-15): 32.6 µM
GI50 (T47D): 40.9 µM (inactive)
GI50 (SF-295): 36.8 µM (inactive)
GI50 (SK-MEL-2): 37.3 µM (inactive)
GI50 (LOX IMVI): 20.7 µM (inactive)
GI50 (M14): 30.1 µM (inactive)
GI50 (SF-268): 45.1 µM (inactive)
GI50 (U-251): 27.1 µM (inactive)
GI50 (A549): 26.7 µM (inactive)
GI50 (SK-OV-3): 71 µM (inactive)
GI50 (COLO 205): 25.6 µM (inactive)
GI50 (SNB-19): 25.9 µM (inactive)
GI50 (NCI/ADR-RES): 43.2 µM (inactive)
GI50 (IGROV-1): 19.5 µM (inactive)
GI50 (K562): 24.7 µM (inactive)
GI50 (Malme-3M): 62.2 µM (inactive)
GI50 (ACHN): 33.7 µM (inactive)
GI50 (NCI-H226): > 100 µM (inactive)
GI50 (MCF7): 13.2 µM (inactive)
GI50 (786-0): 27.9 µM (inactive)
GI50 (HCC 2998): 53.8 µM (inactive)
GI50 (MOLT-4): 0.0764 µM (active)
GI50 (MDA-N): 27.5 µM (inactive)
GI50 (SK-MEL-5): 5.05 µM (inactive)
GI50 (OVCAR-3): 20.4 µM (inactive)
GI50 (OVCAR-8): 30.3 µM (inactive)
GI50 (SK-MEL-28): 69.5 µM (inactive)
GI50 (PC-3): 34.9 µM (inactive)
GI50 (OVCAR-5): 34.9 µM (inactive)
GI50 (SNB-75): 81.1 µM (inactive)
GI50 (MDA-MB-231): 43.5 µM (inactive)
GI50 (TK-10): 28.4 µM (inactive)
GI50 (SW-620): 54.3 µM (inactive)
GI50 (A498): 30.4 µM (inactive)
GI50 (CCRF-CEM): 25.9 µM (inactive)
GI50 (OVCAR-4): 46.3 µM (inactive)
GI50 (UO-31): 26.7 µM (inactive)

COC(=O)N[C@H](C(=O)O)C(C)O[Si](C)(C)C(C)(C)C (stereo not given in full)
GI50 (UACC-257): > 100 µM (inactive)
GI50 (MDA-MB-435): > 100 µM (inactive)
GI50 (SF-539): > 100 µM (inactive)
GI50 (NCI-H460): > 100 µM (inactive)
GI50 (HOP-62): > 100 µM (inactive)
GI50 (BT-549): > 100 µM (inactive)
GI50 (NCI-H23): > 100 µM (inactive)
GI50 (HL-60): > 100 µM (inactive)
GI50 (EKVX): > 100 µM (inactive)
GI50 (HT-29): > 100 µM (inactive)
GI50 (RXF 393): > 100 µM (inactive)
GI50 (HCT-116): > 100 µM (inactive)
GI50 (SN12C): > 100 µM (inactive)
GI50 (RPMI-8226): > 100 µM (inactive)
GI50 (KM12): > 100 µM (inactive)
GI50 (NCI-H522): > 100 µM (inactive)
GI50 (HCT-15): > 100 µM
GI50 (T47D): > 100 µM (inactive)
GI50 (SF-295): > 100 µM (inactive)
GI50 (LOX IMVI): > 100 µM (inactive)
GI50 (SF-268): > 100 µM (inactive)
GI50 (U-251): > 100 µM (inactive)
GI50 (DU-145): > 100 µM (inactive)
GI50 (A549): > 100 µM (inactive)
GI50 (SK-OV-3): > 100 µM (inactive)
GI50 (SR): > 100 µM (inactive)
GI50 (COLO 205): > 100 µM (inactive)
GI50 (SNB-19): > 100 µM (inactive)
GI50 (NCI/ADR-RES): > 100 µM (inactive)
GI50 (IGROV-1): > 100 µM (inactive)
GI50 (K562): > 100 µM (inactive)
GI50 (Malme-3M): > 100 µM (inactive)
GI50 (ACHN): > 100 µM (inactive)
GI50 (NCI-H226): > 100 µM (inactive)
GI50 (MCF7): > 100 µM (inactive)
GI50 (786-0): > 100 µM (inactive)
GI50 (HCC 2998): > 100 µM (inactive)
GI50 (Hs-578T): > 100 µM (inactive)
GI50 (MOLT-4): > 100 µM (inactive)
GI50 (SK-MEL-5): > 100 µM (inactive)
GI50 (UACC-62): > 100 µM (inactive)
GI50 (OVCAR-3): 7.08 µM (inactive)
GI50 (OVCAR-8): > 100 µM (inactive)
GI50 (SK-MEL-28): > 100 µM (inactive)
GI50 (PC-3): > 100 µM (inactive)
GI50 (OVCAR-5): > 100 µM (inactive)
GI50 (MDA-MB-231): > 100 µM (inactive)
GI50 (TK-10): > 100 µM (inactive)
GI50 (SW-620): > 100 µM (inactive)
GI50 (A498): > 100 µM (inactive)
GI50 (CCRF-CEM): > 100 µM (inactive)
GI50 (OVCAR-4): > 100 µM (inactive)
GI50 (UO-31): > 100 µM (inactive)
